This is an account of results in paper PMC7072302 (Biomolecules, 2020).

This assay deals with T1, tyrosinase (Agaricus bisporus, UniProt C7FF04).
T1 construct: purchased Sigma-Aldrich T3824
The assay is described as follows: Tyrosinase enzymatic assay (L-tyrosine substrate, absorbance at 475 nm). The conditions noted are these: for inhibition at 100 µM: compound concentration 100 μM, L-tyrosine substrate, triplicate, mean ± SD, read-out: Inhibition Rate (%) at 100 μM; for Ki: Dixon plot, read-out: Ki (inhibition constant); for IC50: concentrations 3.1 to 100 μM, mean ± SD (n = 3). The assay is classed as biochemical.

SMILES strings stand for the structures. A value given as a limit tells only on which side of the number the result lay.

T1 sequence (C7FF04 1-392 limits assumed): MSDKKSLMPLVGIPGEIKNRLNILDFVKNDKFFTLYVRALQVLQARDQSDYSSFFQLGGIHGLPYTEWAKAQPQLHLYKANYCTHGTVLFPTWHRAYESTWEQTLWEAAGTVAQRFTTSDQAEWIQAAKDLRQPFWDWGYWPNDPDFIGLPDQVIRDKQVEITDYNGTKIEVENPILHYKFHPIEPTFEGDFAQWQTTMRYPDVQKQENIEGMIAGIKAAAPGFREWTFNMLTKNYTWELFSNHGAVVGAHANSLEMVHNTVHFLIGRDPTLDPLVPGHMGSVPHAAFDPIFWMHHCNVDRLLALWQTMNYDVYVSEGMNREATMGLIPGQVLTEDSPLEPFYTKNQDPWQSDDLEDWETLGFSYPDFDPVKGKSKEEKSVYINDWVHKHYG

Take `COc1cc(C(=O)O)cc(OC)c1O` [Compound 3, syringic acid]: the inhibition at 100 µM came to 11.6 ± 0.1%.

For the compound `O=c1c(O[C@@H]2O[C@H](CO)[C@@H](O)[C@H](O)[C@H]2O)c(-c2ccc(O)c(O)c2)oc2cc(O)cc(O)c12` [Compound 4, isoquercitrin], the inhibition at 100 µM came to 1.8 ± 5.9%.

Take `COc1cc(C(=O)OCCCCN=C(N)N)cc(OC)c1OC` [Compound 1, 10-methoxy-leonurine]: the Ki is 1.6 µM, the inhibition at 100 µM was over 80% and the IC50 turned out to be 7.4 ± 0.4 µM.

As to `COc1cc(C(=O)OCCCCNC(=N)N)cc(OC)c1O` [Compound 2, leonurine], the Ki is 11.4 µM, the inhibition at 100 µM was over 80% and 12.4 ± 0.8 µM corresponded to half-maximal inhibition (IC50).

As a reminder, the inhibition is the relative decrease from the control value, in per cent. As usually defined, the Ki is the equilibrium dissociation constant of an inhibitor or competing ligand from its target. One may read the IC50 as the concentration that inhibits the measured activity by half. Low readings indicate inhibition by little substance, high ones a need for much substance.
